Experimental data: patent US20030008857A1, “Photodynamic therapy (PDT) in combination with factors that bind cell surface apoptosis-inducing receptors” (priority 1999, published 2003)

Experiments:
Assay type in all cases: cell-based, human
Settings in all cases: TRAIL 20 ng/ml, 3 hours, Jurkat whole cell extracts
IETDase (caspase 8) = test: Protease assay of cell extracts with Ac-IETD-AMC
Protocol: (§1) The human Jurkat T cell line containing a neomycin resistance gene was obtained from Dr. Charles Rudin (University of Chicago). Cells were maintained in RPMI 1640 medium containing 10% heat-inactivated fetal calf serum (FCS) with penicillin (100 U/mL), streptomycin (100 μg/mL), 20 mM HEPES, 2 mM L-glutamine and G418 (1 μg/ml) purchased from Gibco BRL (Burlington, Ontario) in a CO2 incubator at 37° C. To elicit apoptosis with PDT, Jurkat cells were incubated with different amounts of liposomally formulated benzoporphyrin derivative monoacid ring A (BPD-MA, verteporfin, QLT PhotoTherapeutics, Inc., Vancouver, Canada) for one hour at 37° C. under light-protected conditions. The culture medium used for experiments was identical to that used for the passage of the cells except that FCS was used at a concentration of 5%. Experiments were conducted either in 6-well culture plates at 5×10^6 cells in a volume of 4 ml per well or in 96-well microtiter plates at 1×10^5 cells per well at 0.2 ml per well. […]
(§2) These sequences are denoted by letter codes for each amino acid. […] The reaction mixture was incubated at 37° C. for 1 (DEVD.AMC) or 24 (VEID.AMC and IETH.AMC) h and fluorescence was measured using an excitation at 380 nm and an emission wavelength of 460 nm with a CytoFluor™ 2350 fluorescent measuring system (Perseptive Biosystems, Burlington, Ont).

[1] = test system: DEVDase (caspases 3 and 7); test: Protease assay of cell extracts with Ac-DEVD-AMC
Protocol: as §1, §2

VEIDase (caspase 6) = test: Protease assay of cell extracts with Ac-VEID-AMC
Protocol: as §1, §2

In the case of “TRAIL: recombinant, residues 114-281 of the soluble domain of human TRAIL (BIOMOL)”, the “increase in IETDase-like activity versus control cells” value (IETDase (caspase 8)) is reported as “two-fold”, the “increase in DEVDase-like activity versus control cells” value [1] is reported as “approximately four-fold” and the “increase in VEIDase-like activity versus control cells” value (VEIDase (caspase 6)) is reported as “two-fold”.
